Test results as given in US20070010489A1 (priority 2002, published 2007).
Values joined by “and” are separate entries in the source; they are usually repeats but may differ in a detail not shown here. Identical values can stand only once. Like-named read-outs stand apart in the source and are kept apart here.

How the values were obtained:
HIV = assay: microbe, parasite or virus in culture; format: cell-based; details: Human immunodeficiency virus 1
I84V/L90M = system: I84V/L90M; parameters: key to the marks not given beside the values
[1] = system: wild-type HIV-1 strain IIIB; assay: microbe, parasite or virus in culture; format: cell-based
[2] = system: mutant HIV-1 with I84V/L90M mutations; assay: microbe, parasite or virus in culture; format: cell-based
[3] = target: T1, recombinant HIV-1 protease (Human immunodeficiency virus type 1 group M subtype B, UniProt P04585); assay: biochemical; details: for IC50: read-out: WT IC50
T1 construct: Enzyme: recombinant HIV-1 protease expressed in E. Coli; purchased Bachem California, Inc. H-9040; host or cells: E. coli

84V90M [4] = target: T2, 84V90M (Human immunodeficiency virus type 1 group M subtype B, UniProt P04585, I572V/L578M); assay: cell-based; parameters: species or system HIV; details: Cell-based assay (MT-4)
84V90M [5] = target: T2, 84V90M; format: biochemical, HIV; details: Enzymatic assay
[6] = Human immunodeficiency virus 1, IIIB
[7] = fold difference in EC50 mutant vs wild type, class symbols
[8] = Human immunodeficiency virus 1, IIIB, class symbols
[9] = read-out: Anti-HIV-1 Cell Culture Activity EC50
[10] = read-out: HIV-1 protease inhibition Ki

For `COc1ccc(S(=O)(=O)N(CC(O)C(Cc2ccccc2)NC(=O)OC2COC3OCCC23)CC(C)(C)COCP(=O)(OCc2ccccc2)OCc2ccccc2)cc1` (stereo not shown), the EC50 (HIV) was under 50 nM and the I84V/L90M fold change (I84V/L90M) was “++”.
With `CCOC(=O)C(C)NP(=O)(Cc1ccc(NCC(NC(=O)OC2COC3OCCC23)C(O)CN(CC(C)C)S(=O)(=O)c2ccc(OC)cc2)cc1)NC(C)C(=O)OCC` (stereo not shown) the EC50 [1, 6] was 50 to 500 nM and the I84V/L90M fold change [2, 7] was “− (≦3)”.
`CC(C)CN(CC(O)C(Cc1ccccc1)NC(=O)OC1COC2OCCC12)S(=O)(=O)c1cccc(OCP(=O)(OCc2ccccc2)OCc2ccccc2)c1` (stereo not shown) was tested, and the EC50 [1, 6] was under 50 nM and the I84V/L90M fold change ([2]; fold change) was “++ (>10 to ≦30)”.
`CCOP(=O)(COCC(C)(C)CN(CC(O)C(Cc1ccccc1)NC(=O)OC1COC2OCCC12)S(=O)(=O)c1ccc(OC)cc1)OCC` (stereo not shown) was tested, and the EC50 (HIV) was under 50 nM and the I84V/L90M fold change (I84V/L90M) was “+++”.
For `CCOC(=O)C(CC)OP(=O)(COc1ccc(CC(NC(=O)OC2COC3OCCC23)C(O)CN(CC(C)C)S(=O)(=O)c2ccc(OC)cc2)cc1)Oc1ccccc1` (stereo not shown) [Compound 5a], the EC50 [1, 8] was under 50 nM, the Ki ([3]; Ki (pM), class symbols) was 10 to 100 pM and the I84V/L90M fold change [2, 7] was “− (≦3)”.
`CC(C)CN(C[C@@H](O)[C@H](Cc1ccc(OCP(=O)(Oc2ccccc2)Oc2ccccc2)cc1)NC(=O)OC1CCOC1)S(=O)(=O)c1ccc(N)cc1` (stereo partly shown) [NH2, phenol] was tested, and the EC50 ([1]; read-out: EC50) was 50 to 500 nM and the I84V/L90M fold change ([2]; fold change) was “− (≦3)”.
Work on `CC(C)CN(CC(O)C(Cc1ccc(OCP(=O)(NC(C)C(=O)OC(C)C)Oc2ccccc2)cc1)NC(=O)OC1CCOC1)S(=O)(=O)c1ccc(N)cc1` (stereo not shown) [drawing 1864 R1=OPh R2=Ala-iPr] yielded an EC50 [1, 8] of 50 to 500 nM and a Ki ([3]; Ki (pM), class symbols) of 10 to 100 pM.
For `COc1ccc(S(=O)(=O)N(CC(C)C)CC(O)C(Cc2ccc(OCP(=O)(OC(C)C)OC(C)C)cc2)NC(=O)OC2COC3OCCC23)cc1` (stereo not shown) [drawing 1768 R1=OiPr R2=OiPr], the I84V/L90M fold change [2, 7] was “− (≦3)”.
In the case of `COc1ccc(S(=O)(=O)N(CC(C)C)CC(O)C(Cc2ccc(CO)cc2)NC(=O)OC2COC3OCCC23)cc1` (stereo not shown), the EC50 [1, 6] is reported as under 50 nM and the I84V/L90M fold change ([2]; fold change) is reported as “− (≦3)”.
Compound `Nc1n[nH]c2ccc(CN3C(=O)N(Cc4ccc(OCP(=O)(OCc5ccccc5)OCc5ccccc5)cc4)C(Cc4ccccc4)C(O)C(O)C3Cc3ccccc3)cc12` (stereo not shown) has a Ki ([3]; read-out: Ki) of over 5000 pM, an IC50 [3] of 276 nM and an EC50 (84V90M [4]) of 4960 nM. It also gave an IC50 (84V90M [5]) of 2040 nM.
Work on `CCOP(=O)(COc1ccc(CN2C(=O)N(Cc3ccc4[nH]nc(N)c4c3)C(Cc3ccccc3)C(O)C(O)C2Cc2ccccc2)cc1)OCC` (stereo not shown) yielded a Ki ([3]; read-out: Ki) of over 5000 pM, an IC50 [3] of 627 nM and an EC50 (84V90M [4]) of over 6000 nM. For the same compound, the IC50 (84V90M [5]) was 1470 nM.
`CCOC(=O)C(CC)NP(=O)(COc1ccc(CC(NC(=O)OC2COC3OCCC23)C(O)CN(CC(C)C)S(=O)(=O)c2ccc(OC)cc2)cc1)NC(CC)C(=O)OCC` (stereo not shown) [Example 16e] was tested, and the EC50 [1, 9] was 12.5 ± 3.5 nM and the Ki [3, 10] was 8.8 ± 1.7 pM.
For `CCOP(=O)(OCC)c1ccc(CN(C)CC(NC(=O)OC2COC3OCCC23)C(O)CN(CC(C)C)S(=O)(=O)c2ccc(OC)cc2)cc1` (stereo not shown), the EC50 [1, 6] was under 50 nM and the I84V/L90M fold change [2, 7] was “− (≦3)”.
In the case of `Nc1n[nH]c2ccc(CN3C(=O)N(Cc4cccc(O)c4)C(Cc4ccccc4)C(O)C(O)C3Cc3ccccc3)cc12` (stereo not shown) [m-OH], the Ki ([3]; read-out: Ki) is reported as 128 pM, the IC50 [3] is reported as 1.6 nM and the EC50 (84V90M [4]) is reported as 475 nM. It also gave an IC50 (84V90M [5]) of 12 nM.
In the case of `COc1ccc(S(=O)(=O)N(CCN(C)C)CC(O)C(Cc2ccc(OCc3ccccc3)cc2)NC(=O)OC2COC3OCCC23)cc1` (stereo not shown), the EC50 [1, 6] is reported as under 50 nM and the I84V/L90M fold change ([2]; fold change) is reported as “− (≦3)”.
For `CCOP(=O)(COc1cccc(CN2C(=O)N(Cc3ccc4[nH]nc(N)c4c3)C(Cc3ccccc3)C(O)C(O)C2Cc2ccccc2)c1)OCC` (stereo not shown), the Ki ([3]; read-out: Ki) was 1930 pM, the IC50 [3] was 70 nM and the EC50 (84V90M [4]) was 3000 nM. It also gave an IC50 (84V90M [5]) of 169 nM.
Work on `CCOC(=O)C(C)NP(=O)(COc1cccc(CN2C(=O)N(Cc3ccc4[nH]nc(N)c4c3)C(Cc3ccccc3)C(O)C(O)C2Cc2ccccc2)c1)NC(C)C(=O)OCC` (stereo not shown) [m-bis-Ala-Et] yielded an EC50 (84V90M [4]) of over 6000 nM.
`CCOC(=O)C(CC(C)C)NP(=O)(COc1ccc(CC(NC(=O)OC2COC3OCCC23)C(O)CN(CC(C)C)S(=O)(=O)c2ccc(OC)cc2)cc1)NC(CC(C)C)C(=O)OCC` (stereo not shown) [Example 16g] was tested, and the EC50 [1, 9] was 6.8 ± 0.4 nM and the Ki [3, 10] was 29 ± 9 pM.
`CCOP(=O)(COc1ccc(CC(NC(=O)OC2CCOC2)C(O)CN(CC(C)C)S(=O)(=O)c2ccc(OC)cc2)cc1)OCC` (stereo not shown) [OMe, OEt] was tested, and the EC50 ([1]; read-out: EC50) was under 50 nM and the Ki ([3]; read-out: Ki) was < 10 pM and 10 to 100 pM.
`CCOC(=O)C(CC)OP(=O)(COc1ccc(CC(NC(=O)OC2COC3OCCC23)C(O)CN(CC(C)C)S(=O)(=O)c2ccc(OC)cc2)cc1)Oc1ccccc1` (stereo not shown) [Compound 5b] gave a Ki ([3]; Ki (pM), class symbols) of 100 to 1000 pM.
In the case of `COc1ccc(S(=O)(=O)N(CC(C)C)CC(O)C(Cc2ccccc2)NC(=O)OC2COC3OCCC23)cc1OCP(=O)(OCc1ccccc1)OCc1ccccc1` (stereo not shown), the I84V/L90M fold change ([2]; fold change) is reported as “++ (>10 to ≦30)”.
Compound `CCOP(=O)(COc1ccc(CC2C(O)C(O)C(Cc3ccc(OC)cc3)N(Cc3cccnc3)C(=O)N2Cc2cccnc2)cc1)OCC` (stereo not shown) [OCH3, m-pyridine, OCH2PO3Et2] has an EC50 (84V90M [4]) of 765 nM.
`CC(C)CN(CC(O)C(Cc1ccc(O)cc1)NC(=O)OC1COC2OCCC12)S(=O)(=O)c1ccc(OCP(=O)(OCc2ccccc2)OCc2ccccc2)cc1` (stereo not shown) [OH, OBn] was tested, and the EC50 [1, 6] was 50 to 500 nM.
